Data published in patent US20230002798A1, “PROCESS FOR THE PREPARATION OF A FERMENTABLE SUGAR COMPOSITION AND THE FERMENTATION THEREOF” (WeissBioTech GmbH, priority 2019, published 2023).

Target: Agl1 (Bifidobacterium breve, UniProt C0JP82)
Experiment: Product inhibition of pNPG hydrolysis
Details: 2 mM pNPG

- IC50 (product inhibition): 100 mg/mL
SMILES: OC[C@H]1O[C@H](O[C@H]2[C@H](O)[C@@H](O)C(O)O[C@@H]2CO)[C@H](O)[C@@H](O)[C@@H]1O (mixture of isomers) [maltose]
